Experiments:
[1] = Decomposition in ethanol-water mixture; format: physicochemical; details: 20 mg in 6 mL ethanol and 4 mL purified water, 80° C., 64 hours
Description: The HPLC analysis was carried out using the following equipment and methodology. The column was a Prodigy ODS, 220×4.6 mm, 5 μm. The eluent was ethanol/water 50/50 at a flow rate of 2 mL/min. The detector was an UV-DAD at 242 nm.
Decomposition in Ethanol-Water Mixture
20 mg ciclesonide were dissolved in 6 mL ethanol and 4 mL purified water and the solution was kept at 80° C. for 64 hours.

[2] = ester prodrug; Current Opinion in Investigational Drugs 2002, 3(1) 78-83; cited from earlier work

In the case of `CC(C)C(=O)OCC(=O)[C@@]12O[C@H](C3CCCCC3)O[C@@H]1C[C@H]1[C@@H]3CCC4=CC(=O)C=C[C@]4(C)[C@H]3[C@@H](O)C[C@@]12C` [ciclesonide, pregna-1,4-diene-3,20-dione, 16,17-[[(R)-cyclohexylmethylene]bis(oxy)]-11-hydroxy-21-(2-methyl-1-oxopropoxy)-(11β,16α)-(9CI)], the “formation of the corresponding 21-hydroxy analogue” value [1] is listed as 3.99%, the “purity after storage in ethanol/water solution” value ([1]; initial purity 99.74%) is listed as 95.34% and the oral bioavailability [2] is listed as “essentially devoid of oral bioavailability”.

From patent US20070135398A1, “Process for the preparation of ciclesonide” (priority 2005, published 2007)
